From patent US20150329558A1, “FUSED HETEROCYCLIC COMPOUNDS AS ION CHANNEL MODULATORS” (Gilead Sciences, Inc., priority 2011, published 2015)
Like-named read-outs stand apart in the source and are kept apart here.

What was measured:
[1] = target: wild-type human cardiac sodium channel, hNav1.5 (late INa) (Homo sapiens, UniProt Q14524); test: Late INa screening assay (QPatch whole cell patch clamp); format: cell-based
Outline: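 Compounds tested at 1 μM final in extracellular solution against tefluthrin (10 μM)-enhanced late current. Automated patch clamp (23-25° C) on HEK293 expressing alpha subunit alone: −120 mV holding, 250 ms depolarization to −20 mV every 10 s. Read-out is percent inhibition of mean current over 225–250 ms.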

[2] = Microsomal stability assay, rat; format: in vitro ADME; details: metabolic stability, rat liver microsomes 0.5 mg/mL, substrate 3 uM
Description: (§1) The micorsomal stability assay is generally performed as follows. Format: 15 compounds (and 1 control verapamil) in 3 different species in duplicate sets Substrate: 3 uM Protein concentration: 0.5 mg/mL (for dog, rat, and human liver microsomes) Cofactor: 1×NADPH-Regenerating system Time-points: 2, 12, 25, 45, and 65 minutes [table] Sample preparation: 25 uL at each timepoint is added to plate with 225 uL quenching solution (50% MeOH, 25% ACN, 25% H2O, and 50 nM […]). After plates are vortexed, centrifuge for 30 minutes. Microsomal solutions: take 400 uL of 20 mg/mL microsomes and add to 13,680 uL 100 mM KPO4 buffer. Using an 8-channel, add 650 uL of this solution to the designated two columns on a short plate. The order should be dog microsomes in columns 1 and 2, rat microsomes in columns 3 and 4, and human microsomes in columns 5 and 6. Keep on ice before use. Place this plate in incubator 1 on the TECAN countertop.

[3] = target: wild-type human cardiac sodium channel, hNav1.5 (peak INa) (Homo sapiens, UniProt Q14524); test: Peak INa screening assay (tonic and use-dependent block); format: cell-based; details: 1 μM
Description: The late sodium current (Late INa) and peak sodium current (Peak INa) assays are performed on an automated electrophysiology platform, QPatch 16× (Sophion Bioscience, Copenhagen, Denmark), which uses the whole cell patch clamp technique to measure currents through the cell membrane of up to 16 cells at a time. The assay uses an HEK293 (human embryonic kidney) cell line heterologously expressing the wild-type human cardiac sodium channel, hNav1.5, purchased from Millipore (Billerica, Mass.). No beta subunits were coexpressed with the Na channel alpha subunit. Cells are maintained with standard tissue culture procedures and stable channel expression is maintained with 400 μg/mL Geneticin in the culture medium. […] Experiments are carried out at 23-25° C. For both the Late INa and Peak INa assays, series resistance compensation is set to 100% and series resistance and whole-cell compensation are performed automatically. Currents are digitized at 25 kHz and low-pass filtered at 12 kHz and 10 kHz for the late and peak INa assays, respectively. Currents through open sodium channels are automatically recorded and stored in the Sophion Bioscience Oracle database (Sophion Bioscience, Copehagen, Denmark). Analysis is performed using QPatch Assay and database software and data are compiled in Excel. Compound stocks are routinely made by the Gilead Sample Bank in plastic vials to 10 mM in dimethyl sulfoxide (DMSO). In some cases, when compounds are not soluble in DMSO, they are made in 100% ethanol. Stocks are sonicated as necessary. […] The intracellular solution used to perfuse the inside of the cells for both the Late INa and Peak INa assays contains: 120 mM CsF, 20 mM CsCl, 5 mM EGTA, 5 mM HEPES and pH adjusted to 7.4 with CsOH. Compounds are diluted in extracellular solution to 1 μM in glass vials and then transferred to glass well plates before robotic addition to the cells. […] Compounds were also evaluated for their effect in several other assays, including their effect on Peak INa. Good separation between the concentrations of test compound to reduce late and peak INa is beneficial to enable separation of the desired effect to reduce late INa-induced electrical and mechanical dysfunction from the undesired effect to reduce peak INa, which can lead to slowing or block of conduction of electrical excitation in the heart. It is contemplated that the compounds of Formula I avoid significant block of peak INa. Since the peak INa in the cells used herein can be very large, introducing artifacts in the recording, the concentration of Na^+ in the bath can be reduced to 20 mM and a nonpermeant cation added to compensate for the Na^+ that was removed to maintain the osmolarity and ionic strength of the solution (see solution details below). Analysis of peak INa generally requires correction for rundown before determining the % block of peak current by the tested compound. […] A low stimulation frequency of 0.1 Hz was used to determine the effect of the test compound when the channel spent most of the time in the resting (closed) state and provides information about Tonic Block (TB). A higher stimulation frequency (3 Hz) was used to measure block of the channel when it spent more time in the activated and inactivated states and provided a measure of Use-Dependent Block (UDB). Use-dependent block refers to the accumulation of block with increased frequency of channel activation. Block of cardiac peak INa by compounds of this invention is increased with an increase in the frequency of stimulation from 0.1 to 1-5 Hz (frequencies encountered either in the normal heart or during tachycardia). It is therefore expected that reduction of peak INa by compounds of this invention will be greater at high heart rates, such as those during tachyarrhythmias, than at normal heart rates. […]

[4] = Microsomal stability assay, human; format: in vitro ADME; details: metabolic stability, human liver microsomes 0.5 mg/mL, substrate 3 uM
Description: as §1

[5] = Microsomal stability assay, dog; format: in vitro ADME; details: metabolic stability, dog liver microsomes 0.5 mg/mL, substrate 3 uM
Description: as §1

[6] = percent block of late INa, compound at 1 μM, 10 μM Tefluthrin, HEK293 hNav1.5, read-out: Late INa 1 μM
[7] = tonic block of peak INa, 0.1 Hz, read-out: Peak TB 1 μM
[8] = use-dependent block of peak INa, 3 Hz, read-out: Peak UDB 1 μM

Sequence of wild-type human cardiac sodium channel, hNav1.5 (late INa) (Q14524 whole entry): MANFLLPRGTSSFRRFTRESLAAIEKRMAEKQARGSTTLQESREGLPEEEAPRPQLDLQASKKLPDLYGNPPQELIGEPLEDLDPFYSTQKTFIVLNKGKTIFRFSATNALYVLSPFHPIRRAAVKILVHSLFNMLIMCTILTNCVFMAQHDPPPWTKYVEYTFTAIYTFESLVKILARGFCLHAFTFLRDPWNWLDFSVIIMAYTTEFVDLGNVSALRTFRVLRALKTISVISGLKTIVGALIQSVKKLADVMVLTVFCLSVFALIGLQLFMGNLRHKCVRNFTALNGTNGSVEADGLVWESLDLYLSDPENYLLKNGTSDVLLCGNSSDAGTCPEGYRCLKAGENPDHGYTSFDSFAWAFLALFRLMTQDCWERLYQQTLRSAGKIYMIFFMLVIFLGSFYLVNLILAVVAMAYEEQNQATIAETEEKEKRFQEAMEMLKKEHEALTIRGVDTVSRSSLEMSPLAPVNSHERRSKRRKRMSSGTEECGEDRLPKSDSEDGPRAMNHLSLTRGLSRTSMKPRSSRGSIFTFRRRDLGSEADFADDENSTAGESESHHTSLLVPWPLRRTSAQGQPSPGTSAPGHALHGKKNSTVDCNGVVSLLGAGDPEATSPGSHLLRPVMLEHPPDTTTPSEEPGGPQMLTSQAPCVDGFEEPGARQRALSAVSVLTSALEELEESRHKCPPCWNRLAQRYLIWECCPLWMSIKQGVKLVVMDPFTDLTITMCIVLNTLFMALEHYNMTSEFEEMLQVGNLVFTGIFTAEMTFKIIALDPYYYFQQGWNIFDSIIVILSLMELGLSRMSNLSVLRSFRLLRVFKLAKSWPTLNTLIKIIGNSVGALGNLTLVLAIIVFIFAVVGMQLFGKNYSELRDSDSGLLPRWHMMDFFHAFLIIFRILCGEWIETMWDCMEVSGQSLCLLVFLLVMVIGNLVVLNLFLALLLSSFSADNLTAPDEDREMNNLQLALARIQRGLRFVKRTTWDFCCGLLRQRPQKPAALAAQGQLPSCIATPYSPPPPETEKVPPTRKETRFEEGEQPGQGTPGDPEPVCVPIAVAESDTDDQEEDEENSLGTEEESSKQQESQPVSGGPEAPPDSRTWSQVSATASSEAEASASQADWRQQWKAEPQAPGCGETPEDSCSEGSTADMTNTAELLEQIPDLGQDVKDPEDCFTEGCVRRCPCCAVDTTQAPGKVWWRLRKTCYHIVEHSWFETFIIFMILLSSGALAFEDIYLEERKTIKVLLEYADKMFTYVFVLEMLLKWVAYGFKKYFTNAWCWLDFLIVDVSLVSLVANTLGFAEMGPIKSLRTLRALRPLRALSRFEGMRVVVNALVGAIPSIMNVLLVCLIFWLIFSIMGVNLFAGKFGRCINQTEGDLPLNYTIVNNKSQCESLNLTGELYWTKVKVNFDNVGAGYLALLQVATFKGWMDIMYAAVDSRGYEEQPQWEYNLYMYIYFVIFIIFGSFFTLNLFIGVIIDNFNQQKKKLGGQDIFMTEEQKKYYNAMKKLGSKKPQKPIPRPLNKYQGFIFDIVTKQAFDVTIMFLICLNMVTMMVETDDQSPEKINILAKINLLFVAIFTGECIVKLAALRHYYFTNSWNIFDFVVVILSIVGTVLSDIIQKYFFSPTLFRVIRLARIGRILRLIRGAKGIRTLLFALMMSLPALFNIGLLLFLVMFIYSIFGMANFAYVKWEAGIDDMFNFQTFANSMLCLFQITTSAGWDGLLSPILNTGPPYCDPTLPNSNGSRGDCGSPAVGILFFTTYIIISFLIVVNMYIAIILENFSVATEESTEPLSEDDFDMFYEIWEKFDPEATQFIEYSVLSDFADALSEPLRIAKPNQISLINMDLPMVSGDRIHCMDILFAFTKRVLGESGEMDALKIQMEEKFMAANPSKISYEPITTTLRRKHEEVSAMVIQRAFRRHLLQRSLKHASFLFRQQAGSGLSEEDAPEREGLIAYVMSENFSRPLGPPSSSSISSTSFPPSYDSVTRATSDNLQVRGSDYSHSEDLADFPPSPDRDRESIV
Sequence of wild-type human cardiac sodium channel, hNav1.5 (peak INa) (Q14524 whole entry): as above

| SMILES | MS Rat THalf [2] | MS Human THalf [4] | MS Dog THalf [5] | inhibition at 1 µM [1, 6] | inhibition at 1 µM [3, 7] | inhibition at 1 µM [3, 8] | inhibition at 1 µM ([1]; % inhibition at 1 μM, read-out: NAv1.5*-LATE-) |
| --- | --- | --- | --- | --- | --- | --- | --- |
| O=C1c2cc(-c3ccc(C(F)(F)F)cc3)ccc2SCN1Cc1ncccn1 [Compound X-4, 3-(pyrimidin-2-ylmethyl)-6-(4-(trifluoromethyl)phenyl)-2H-benzo[e][1,3]thiazin-4(3H)-one] | 122 min | 103 min | 126 min | 52% | 27% | 25% |  |
| O=C1c2cc(-c3ccc(C(F)(F)F)cc3)ccc2SCN1Cc1ccccc1Cl [Compound X-5, 3-(2-chlorobenzyl)-6-(4-(trifluoromethyl)phenyl)-2H-benzo[e][1,3]thiazin-4(3H)-one] | 57 min | 48 min | 55 min | 57% | 12% | 35% |  |
| O=c1c2cc(-c3ccc(OC(F)(F)F)cc3)ccc2nnn1Cc1ncc(Cl)cn1 [II-4, 3((5-chloropyrimidin-2-yl)methyl)-6-(4-(trifluoromethoxy)phenyl)benzo[d][1,2,3]triazin-4(3H)-one] | 135 min | 270 min | 61 min | 41% | 9% | 4% |  |
| Cc1nonc1Cn1cnc2ccc(-c3ccc(OC(F)(F)F)cc3)cc2c1=O [IV-3, 3-((4-methyl-1,2,5-oxadiazol-3-yl)methyl)-6-(4-(trifluoromethoxy)phenyl)quinazolin-4(3H)-one] | 219 min | 366 min | 54 min | 37% |  |  |  |
| O=C(NCc1ccco1)N1CCc2ccc(-c3ccc(C(F)(F)F)cc3)cc2C1 [IX-48, N-(furan-2-ylmethyl)-7-(4-(trifluoromethyl)phenyl)-3,4-dihydroisoquinoline-2(1H)-carboxamide] | 37 min | 80 min | 149 min | 31% |  |  |  |
| CN(C(=O)N1CCc2ccc(-c3ccc(C(F)(F)F)cc3)cc2C1)c1ccccc1 [IX-50, N-methyl-N-phenyl-7-(4-(trifluoromethyl)phenyl)-3,4-dihydroisoquinoline-2(1H)-carboxamide] | 9 min | 61 min | 96 min | 29% |  |  |  |
| O=C(N1CCCC1)N1CCc2ccc(-c3ccc(C(F)(F)F)cc3)cc2C1 [IX-53, pyrrolidin-1-yl(7-(4-(trifluoromethyl)phenyl)-3,4-dihydroisoquinolin-2(1H)-yl)methanone] | 28 min | 198 min | 93 min | 33% |  |  |  |
| Cn1ccnc1C(=O)N1CCc2ccc(-c3ccc(C(F)(F)F)cc3)cc2C1 [IX-80, (1-methyl-1H-imidazol-2-yl)(7-(4-(trifluoromethyl)phenyl)-3,4-dihydroisoquinolin-2(1H)-yl)methanone] | 7 min | 170 min | 197 min | 40% |  |  |  |
| O=C(NCc1ncccn1)N1CCc2ccc(-c3ccc(C(F)(F)F)cc3)cc2C1 [IX-89, N-(pyrimidin-2-ylmethyl)-7-(4-(trifluoromethyl)phenyl)-3,4-dihydroisoquinoline-2(1H)-carboxamide] | 192 min | 125 min | 177 min | 33% |  |  |  |
| O=C(N1CCc2ccc(-c3ccc(C(F)(F)F)cc3)cc2C1)N1CC(O)C1 [IX-108, (3-hydroxyazetidin-1-yl)(7-(4-(trifluoromethyl)phenyl)-3,4-dihydroisoquinolin-2(1H)-yl)methanone] | 302 min | 245 min | 370 min | 30% |  |  | 30% |

Second part, led by results:

| MS Rat THalf [2] | MS Human THalf [4] | MS Dog THalf [5] | SMILES | inhibition at 1 µM [1, 6] | inhibition at 1 µM [3, 7] | inhibition at 1 µM [3, 8] | inhibition at 1 µM ([1]; % inhibition at 1 μM, read-out: NAv1.5*-LATE-) |
| --- | --- | --- | --- | --- | --- | --- | --- |
| 58 min | 74 min | 107 min | O=C1c2cc(-c3ccc(OC(F)(F)F)cc3)ccc2SCN1Cc1ccccn1 [Compound X-1, 3-(pyridin-2-ylmethyl)-6-(4-(trifluoromethoxy)phenyl)-2H-benzo[e][1,3]thiazin-4(3H)-one] | 47% | 14% | 22% |  |
| 137 min | 142 min | 164 min | O=C1c2cc(-c3ccc(OC(F)(F)F)cc3)ccc2SCN1Cc1ncccn1 [Compound X-2, 3-(pyrimidin-2-ylmethyl)-6-(4-(trifluoromethoxy)phenyl)-2H-benzo[e][1,3]thiazin-4(3H)-one] | 55% | 14% | 17% |  |
| 45 min | 36 min | 137 min | O=C1c2cc(-c3ccc(C(F)(F)F)cc3)ccc2SCN1Cc1ccccn1 [Compound X-3, 3-(pyridin-2-ylmethyl)-6-(4-(trifluoromethyl)phenyl)-2H-benzo[e][1,3]thiazin-4(3H)-one] | 67% | 31% | 35% |  |
| 46 min | 38 min | 120 min | O=C1c2cc(-c3ccc(C(F)(F)F)cc3)ccc2SCN1Cc1ncccc1F [Compound X-6, 3-((3-fluoropyridin-2-yl)methyl)-6-(4-(trifluoromethyl)phenyl)-2H-benzo[e][1,3]thiazin-4(3H)-one] | 69% | 35% | 32% |  |
| 47 min | 70 min | 75 min | O=C1c2cc(-c3ccc(OC(F)(F)F)cc3)ccc2SCN1Cc1ncccc1F [Compound X-9, 3-((3-fluoropyridin-2-yl)methyl)-6-(4-(trifluoromethoxy)phenyl)-2H-benzo[e][1,3]thiazin-4(3H)-one] | 67% | 39% | 31% |  |
| 32 min | 46 min | 31 min | O=c1c2cc(-c3ccc(OC(F)(F)F)cc3)ccc2cnn1CCc1ccncn1 [III-36, 2-(2-(pyrimidin-4-yl)ethyl)-7-(4-(trifluoromethoxy)phenyl)phthalazin-1 (2H)-one] | 39% |  |  |  |
| 106 min | 65 min | 88 min | O=C1c2cc(-c3ccc(OC(F)(F)F)cc3)ccc2CCN1Cc1ccccn1 [IX-2, 2-(pyridin-2-ylmethyl)-7-(4-(trifluoromethoxy)phenyl)-3,4-dihydroisoquinolin-1(2H)-one] | 40% |  |  |  |
